Data taken from patent US20190387748A1, “COMPOSITIONS AND RELATED METHODS FOR AGRICULTURE” (priority 2017, published 2019).
“Also recorded” adds a separate entry of the source.

What was measured:
Assay type in all cases: in vivo
[1] = test system: Acyrthosiphon pisum aphids; test: Aphid survival monitoring
Description: For each treatment, 33 aphids were placed onto each leaf. Artificial diet feeding systems were changed every 2-3 days throughout the experiment. Aphids were monitored daily for survival and dead aphids were removed from the deep petri dish housing the artificial feeding system when they were discovered.
(§1) Each treatment group received approximately the same number of individuals from each of the collection plant. For each treatment, 20 aphids were placed onto each leaf. Aphids were monitored daily for survival and dead aphids were removed when they were discovered. In addition, the developmental stage (1st, 2nd, 3rd, 4th, 5th instar, and 5R, representing a reproducing 5th instar) was determined daily throughout the experiment. Pictures of aphids were taken throughout the experiment to evaluate size differences between treatment groups.
(Vroma vicia faba from Johnny's Selected Seeds) in a climate-controlled incubator (16 h light/8 h dark photoperiod; 60±5% RH; 25±2° C.). Prior to being used for aphid rearing, fava bean plants were grown in potting soil at 24° C. with 16 h of light and 8 h of darkness. To limit maternal effects or health differences between plants, 5-10 adults from different plants were distributed among 10 two-week-old plants, and allowed to multiply to high density for 5-7 days. For experiments, first and second instar aphids were collected from healthy plants and divided into 2 different treatment groups: 1) negative control (leaf injected with water plus blue food coloring) and 2) leaf injected with 50 μg/ml rifampicin in water plus blue food coloring. Each treatment group received approximately the same number of individuals from each of the collection plants. For treatment, rifampicin stock solution (25 mg/ml in 100% methanol) was diluted to 50 μg/ml in water plus blue food coloring. The solution was then placed into a 1.5 ml Eppendorf tube with a fava bean stem perfused with the solutions and the opening of the tube was closed using parafilm. This feeding system was then placed into a deep petri dish (Fisher Scientific, Cat# FB0875711) and aphids were applied to the leaves of the plant. For each treatment, 74-81 aphids were placed onto each leaf. The feeding systems were changed every 2-3 days throughout the experiment. Aphids were monitored daily for survival and dead aphids were removed from the deep petri dish when they were discovered. In addition, the developmental stage (1st, 2nd, 3rd, 4th, 5th and 5R (5th that has reproduced) instar) was determined daily throughout the experiment.
For each treatment, 49-50 aphids were placed onto each leaf. The feeding systems were changed every 2-3 days throughout the experiment. Aphids were monitored daily for survival and dead aphids were removed from the deep petri dish when they were discovered.
For each treatment, 76-80 aphids were placed onto each leaf. The feeding systems were changed every 2-3 days throughout the experiment. Aphids were monitored daily for survival and dead aphids were removed from the deep petri dish when they were discovered.
For each treatment, 50-51 aphids were placed onto each leaf. The feeding systems were changed every 2-3 days throughout the experiment. Aphids were monitored daily for survival and dead aphids were removed from the deep petri dish when they were discovered.
For each treatment, 56-59 aphids were placed onto each leaf. The feeding systems were changed every 2-3 days throughout the experiment. Aphids were monitored daily for survival and dead aphids were removed from the deep petri dish when they were discovered.
For each treatment, 57-59 aphids were placed onto each leaf. The feeding systems were changed every 2-3 days throughout the experiment. Aphids were monitored daily for survival and dead aphids were removed from the deep petri dish when they were discovered.
For each treatment, 15-87 aphids were placed onto each leaf. Artificial diet feeding systems were changed every 2-3 days throughout the experiment.

[2] = test system: Acyrthosiphon pisum aphids; test: Aphid fecundity (offspring production); details: 10 or 100 uM pantothenol
Method: (§2) In addition, the developmental stage (1st, 2nd, 3rd, 4th, 5th instar) was determined daily throughout the experiment. Once an aphid reached the 4th instar stage, they were given their own artificial feeding system in a deep petri dish so that fecundity could be monitored once they reached adulthood.
(§3) For adult aphids, new nymphs were counted daily and then discarded. At the end of the experiments, fecundity was determined as the mean number of offspring produced daily once the aphid reached adulthood. Pictures of aphids were taken throughout the experiment to evaluate size differences between treatment groups.
as §2, with “5th, and 5R (5th that has reproduced)” for “5th”
(§4) For adult aphids, new nymphs were counted daily and then discarded. At the end of the experiments, fecundity was measured in two ways: 1) the mean day at which the first offspring for the treatment group was determined and 2) the mean number of offspring produced daily once the aphid reached adulthood. […]
In addition, the developmental stage (1st, 2nd, 3rd, 4th, 5th instar) was determined daily throughout the experiment. […]

[3] = test system: Acyrthosiphon pisum aphids; test: Aphid body area (size) measurement; details: 10 or 100 uM pantothenol, through plants; by 3 days post-treatment
Method: as §3
as §1, with “Pictures of aphids were taken throughout the experiment to evaluate size differences between treatment groups.” left out
as §4
Aphids LSR-1 (which harbor only Buchnera), Acyrthosiphon pisum were grown on fava bean plants (Vroma vicia faba from Johnny's Selected Seeds) in a climate-controlled incubator (16 h light/8 h dark photoperiod; 60±5% RH; 25±2° C.). […] Aphids were monitored daily for survival and dead aphids were removed from the deep petri dish when they were discovered. […]

With `CC(C)(CO)[C@@H](O)C(=O)NCCCO` [pantothenol] the “Aphid survival / mortality” value ([1]; 10 or 100 uM pantothenol, through plants) was “increased aphid mortality; also recorded: negatively affected aphid fitness”, the Aphid survival rate ([1]; leaf coating, 10 uM pantothenol) was “resulted in aphid death; also recorded: lower survival rates than aphids placed on coated leaves with the control solution” and the Aphid reproduction [2] was “loss of reproduction”. For the same compound, the “Aphid area (body size)” value [3] was “drastic effect of pantothenol treatment; also recorded: smaller in area than untreated controls”.
